# Measured values reported in ChEMBL document CHEMBL1156829 (Proc Natl Acad Sci U S A, 2008).
# Structures can show the parent of a compound that is named as a salt.
# Experiments:
# Plasmodium falciparum [1] = assay: NOVARTIS: Inhibition of Plasmodium falciparum 3D7 (drug-susceptible) proliferation in erythrocyte-based infection assay; format: functional, organism-based; settings: Plasmodium falciparum, 3D7
# Plasmodium falciparum [2] = assay: NOVARTIS: Inhibition of Plasmodium falciparum W2 (drug-resistant) proliferation in erythrocyte-based infection assay; format: functional, organism-based; settings: Plasmodium falciparum, W2; read-out: EC50
# [3] = NOVARTIS: Cytotoxicity against human hepatocellular carcinoma cell line (Huh7); format: toxicity, cell-based, Huh-7; settings: Huh7 cells (hepatocellular carcinoma cell line)
SMILES,EC50 (Plasmodium falciparum [1]) [nM],EC50 (Plasmodium falciparum [2]) [nM],CC50 [3] [nM]
NC(=NCc1ccccc1)NC(=O)c1nc(Cl)c(N)nc1N,1160,> 1250,> 6250
COc1cc(NC(C)CCCN(Cc2ccc(OC)c(OC)c2)C(=O)CC(C)CC(C)(C)C)c2ncccc2c1 (stereo not drawn),1040,640,5890
C=CCc1cc(C=c2sc3n(c2=O)C(c2ccccc2)C(C(=O)OCC)=C(C)N=3)cc(OC)c1O (stereo not drawn),2500,391,> 100000
COc1ccc2c(c1OC)C(=O)N(c1ncc(C)s1)C2,> 1250,> 1080,> 10000
O=[N+]([O-])c1cc(Cl)c(N2CCOCC2)cc1N1CCOCC1,1040,515,> 100000
CCCCC(=O)NC(c1ccccc1)c1ccc2cccnc2c1O (stereo not drawn),387,239,> 100000
Cc1nc2ccccc2n1S(C)(=O)=O,59.6,54.3,> 10000
COc1ccccc1/C=C/C1=NC(=C\c2ccc(SC)cc2)/C(=O)O1,> 1250,228,> 10000
COc1ccc(CNC(=O)C(Cc2c[nH]c3ccccc23)N2CCS(=O)(=O)CC2)cc1 (stereo not drawn),851,784,8040
COc1ccc(C(=O)C[N+]2=C(C)c3ccc(C)n3CC2)cc1,1170,1290,> 100000
Brc1ccc(C=Nc2ccc(-c3nc4cc(-c5ccc6[nH]c(-c7ccc(N=Cc8ccc(Br)cc8)cc7)nc6c5)ccc4[nH]3)cc2)cc1,587,647,> 10000
COc1ccc(NC(=O)c2cnn(-c3ccccc3)c2NC(=O)c2ccco2)cc1,8000,3230,> 100000
CCN1C=CC(=Cc2ccc3ccccc3[n+]2C)C=C1,453,976,20000
COc1cc(COc2cc(N)c(Cl)cc2C(=O)CCC2CCN(CCNS(C)(=O)=O)CC2)cc(OC)c1,> 788,< 8.52,> 13000
COc1ccc(-c2c[n+](CC(=O)c3ccc([N+](=O)[O-])cc3)c3n2CCC3)cc1,518,426,> 100000
CC(=O)N(C1=C(N2CCCC2)C(=O)c2ccccc2C1=O)c1ccccc1C,83.9,31.9,11500
CN(C)c1ccc(C2Nc3ccccc3NC3=C2C(=O)CC(C)(C)C3)cc1 (stereo not drawn),> 12500,4390,> 100000
CC(=O)OC1C(NC(=O)c2cc([N+](=O)[O-])c(N(C)C)c([N+](=O)[O-])c2)OC(C(=O)N2CCOCC2)C(OC(C)=O)C1OC(C)=O (stereo not drawn),> 1090,> 1250,> 10000
Cc1ccc([N+](=O)[O-])cc1-c1ccc(/C=C2/SC(=S)N(CC(=O)O)C2=O)o1,> 1250,> 940,> 10000
CCN1CCN(CC(O)COc2ccc(OC)cc2)CC1 (stereo not drawn),2810,> 9190,> 100000
CCCC(C)C(C(=O)Nc1c(C)cccc1C)N1C(=O)c2cc(NC(C)=O)ccc2NC(=O)[C@@H]1CCC(=O)O (stereo partly drawn),1460,> 163,8510
CN(C)c1nc(Cl)nc(N(C#N)CCOc2ccccc2)n1,> 703,> 1250,> 10000

SMILES,EC50 (Plasmodium falciparum [1]) [nM],EC50 (Plasmodium falciparum [2]) [nM],CC50 [3] [nM]
CS[C@H]1SC[C@H]2C(=O)N(C)[C@@H](C(C)C)C(=O)OC[C@@H](NC(=O)c3cnc4ccccc4n3)C(=O)N[C@@H](C)C(=O)N(C)[C@@H]1C(=O)N(C)[C@@H](C(C)C)C(=O)OC[C@@H](NC(=O)c1cnc3ccccc3n1)C(=O)N[C@@H](C)C(=O)N2C [ECHINOMYCIN],73.7,524,> 10000
CCOC(=O)c1ccc(NC(=O)c2sc(NC(=O)c3cc(OC)c(OC)c(OC)c3)c(C(=O)OCC)c2C)cc1,> 995,> 1250,> 10000
COc1cccc(N2C(N)=NC(N)=NC2(C)C)c1,55.5,498,> 100000
CCOC(=O)c1c(C)n(-c2ccccc2)c2ccc(OC(=O)C3CC3)cc12,749,1720,> 100000
CCOC(=O)c1ccc2nc(C)cc(Nc3ccc(N4CCCCC4)cc3)c2c1,292,634,21200
Cc1cc(N(C)C)cc(C)[n+]1OC(=O)N(c1ccccc1)c1ccccc1,> 1490,2000,> 10000
CCCCCN(C(=O)Nc1ccccc1OC)C(CC)c1nc2ccccc2c(=O)n1-c1ccccc1OC (stereo not drawn),780,835,> 10000
O=C(Nc1ccc(C2=NCCN2)c(Cl)c1)c1cccc(C(=O)Nc2ccc(C3=NCCN3)c(Cl)c2)c1,307,103,> 10000
CCOC(=O)c1cnc2cc(OCC3CC3)c(OCC3CC3)cc2c1O,< 5.72,< 0.0706,> 100000
O=C(NCCCCNc1ccnc2cc(Cl)ccc12)C1CCCCC1,311,198,> 13300
CN1c2ccccc2N(C)C1c1ccco1,288,356,> 10000
CC(C)(C)C(=O)NCCNc1ccc([N+](=O)[O-])cc1C(F)(F)F,2260,1110,> 100000
CN(C)CCCNc1ncc(C(=O)NCc2ccccc2)c(NCCc2ccccc2)n1,817,> 1250,> 10000
CC(=O)N(C1=C(N2CCCC2)C(=O)c2ccccc2C1=O)c1ccc(F)cc1,646,75.9,25800
CCN1/C(=C/C2=CC(=C/c3sc4ccccc4[n+]3CC)/CC(C)(C)C2)C=Cc2ccccc21,486,1030,42200
Cc1cc(F)ccc1NC(=O)C(C)n1c2ccccc2c2nc(=O)cc(C)n21 (stereo not drawn),283,126,> 100000
C[n+]1oc(/C=C/c2ccccc2)cc1/C=C/c1ccccc1,110,88.8,> 10000
Cc1n(N)c2ccccc2[n+]1CC(=O)c1ccccc1,2900,1750,> 100000
Nc1nc(N)c2cc(S(=O)(=O)N3CCSCC3)ccc2n1,116,> 1250,15100
O=C(OC(C(=O)NCc1ccco1)c1ccc(F)cc1)c1ccco1 (stereo not drawn),> 1250,> 327,> 10000
COc1cccc(CNc2cc(C(=O)NCCNC(C)=O)cc(S(=O)(=O)N(C)C)c2)c1OC,> 431,> 1210,> 10000
NC(=S)NN=Cc1cc([N+](=O)[O-])ccc1O,68.6,52,> 100000

SMILES,EC50 (Plasmodium falciparum [1]) [nM],EC50 (Plasmodium falciparum [2]) [nM],CC50 [3] [nM]
CCC(CC)CN1CCC(O)(c2ccc3oc(C(=O)Nc4ccc(OC)cc4)cc3c2)CC1,954,617,> 100000
Cc1cc(C)n(-c2ccc(NC(=O)C3CCN(Cc4ccc5nonc5c4)CC3)cc2)n1,430,412,> 83200
Cn1nc(-c2ccccc2)c2c(C(=O)C(F)(F)F)cc(C(=O)C(F)(F)F)c-2c1-c1ccccc1,8230,2330,> 100000
CC[C@H]1CN2CCc3cc(OC)c(OC)cc3[C@@H]2C[C@@H]1C[C@H]1NCCc2cc(O)c(OC)cc21 [CEPHAELINE HYDROBROMIDE],3.61,4.23,26.1
C=C(Cl)CSc1nnc(CCNC(=O)c2ccc(C)cc2)n1-c1ccc(F)cc1,> 12500,7430,> 100000
CCN(CC)CCCN(Cc1cc2cc(OC)ccc2[nH]c1=O)C(=S)Nc1cccc(Cl)c1,798,809,20500
CCOC(=O)c1c(C)[n+](-c2ccc(C)cc2)c(CC)c2cc(OC)c(OC)cc12,702,683,> 94000
N=c1c2c(n(Cc3ccc([N+](=O)[O-])cc3)c3c1CCC3)CCCC2,121,130,> 100000
COc1ccc(Br)cc1S(=O)(=O)N1CCCc2ccccc21,9950,11400,> 100000
Clc1ccccc1Nc1nc2nonc2nc1Nc1cccc(Br)c1,> 1250,> 678,> 10000
Clc1ccc(Nc2nc(NCc3ccco3)c3ccccc3n2)cc1,113,92.4,15600
Cc1ncc(CN2CCC(C(=O)Nc3ccc(-c4nc5ccccc5o4)cc3)CC2)s1,740,721,> 100000
COc1cc(-c2nc(-c3ccccc3)c(-c3cccc(C(F)(F)F)c3)[nH]2)cc(OC)c1O,622,902,44900
CC(C)CC(N)C(=O)NCCCNc1nsc2ccccc12 (stereo not drawn),2820,> 12100,15900
CCOC(=O)c1nnn(-c2nonc2N)c1-c1ccc(OC)c(OC)c1,513,450,> 100000
Cc1ccc(-c2nn(-c3ccccc3)c3[nH]c(=O)c(CNCc4ccccc4)cc23)cc1,1610,467,> 100000
COc1cc(NC(C)CCCN(Cc2ccc(N(C)C)cc2)S(=O)(=O)c2cccc3ccccc23)c2ncccc2c1 (stereo not drawn),806,645,> 13900
Cc1[nH]c2ccccc2c(=O)c1Br,532,686,> 100000
Cc1cccc(NC(=O)c2ccc3ccccc3n2)n1,> 547,> 1090,> 10000
CC(C)(C)NC(=S)NN=CC=NNC(=S)NC(C)(C)C,210,56.9,> 100000
CCOC(=O)c1cccc(NC(=O)CC2C(=O)N(c3ccccc3)C(=O)N2C2CCCC2)c1 (stereo not drawn),276,88.4,> 100000
CCc1cccc(NC(=O)CCCn2c(=O)c3cccn3c3ccccc32)c1,> 1560,826,> 10000
